{
  "source": "patent US10882883B2",
  "about": "“Derivatives of amphotericin B” (Sfunga Therapeutics, Inc., priority 2015, dated 2021)",
  "origin": "cited, not measured here",
  "key": {"[1]": {"details": "Wilcock et al., J Am Chem Soc 135: 8488-91 (2013)"}, "[2]": {"details": "Wilcock et al., J Am Chem Soc 135: 8488-91 (2013)", "remark": "listed apart in the source"}, "[3]": {"tested_on": "yeast", "details": "in vitro studies; WO 2014/165676"}},
  "data": [
    {"smiles": "CC1C=CC=CC=CC=CC=CC=CC=CC(OC2CC(N)C(O)C(C)O2)CC2OC(O)(CC(O)CC(O)C(O)CCC(O)CC(O)CC(=O)OC(C)C(C)C1O)CC(O)C2C(=O)O", "note": "(stereo not drawn) [C2′deOAmB]", "values": [
      {"measurement": "ergosterol-binding ability", "setting": "[1]", "result": "retains ergosterol-binding ability"},
      {"measurement": "binding to cholesterol", "setting": "[2]", "result": "no binding to cholesterol"},
      {"measurement": "toxicity to yeast", "setting": "[3]", "result": "toxic to yeast"}
    ]}
  ]
}
